Test results reported in patent US10092657B2, “Opsonized β-glucan preparations and methods” (Biothera, Inc., priority 2011, dated 2018).
Each block holds one molecule with its values, some of them ahead of it.

Key:
human neutrophils [1] = experiment: Binding of PGG β-glucan after serum pre-treatment, neutrophils; format: cell-based; conditions: 10 mM EGTA with or without 10 mM MgCl2; vs untreated serum
Protocol: (§1) PGG β-glucan at concentration 60-80 mg/mL was incubated with human serum at 1:10 volume ratio for 30 minutes in a 37° C. water bath. The serum-pretreated PGG β-glucan was added to neutrophils at 200 μg/mL or to PBMC at 100 μg/mL resuspended in RPM1 containing either 10% regular autologous serum or 10% HI serum at indicated time and temperature of incubation. Binding was then determined as described previously.
(§2) To determine the role of complement proteins in binding, experiments were performed as described above except for using serum containing 10% HI, compstatin-treated or methylamine (MA)-treated, EGTA- or EGTA+MgCl2 (MgEGTA)-treated, or factor D-blocked serum. Heat-inactivated (HI) serum was prepared by incubating serum in a 56° C. water bath for 30 minutes. […] Treatment of serum with methylamine (MA) was done by incubating serum with 0.67% of methylamine for 2.5 hours at 37° C., followed by three washes with DPBS using Amicon centrifugal filter unit with a 3K MW cut-off (Millipore, Billerica, Mass.). DPBS-treated serum was prepared in the same manner and used as control serum for MA-treated serum. For blocking of factor D in the serum, 166-32 at concentration 20 μg/mL was incubated with serum on ice for 30 minutes, and then used for binding studies. […]

sC5b-9 complex = experiment: Measurement of fluid-phase SC5b-9 complex formation in the serum; format: biochemical, human; conditions: serum treated with 10 mM EGTA with or without 10 mM MgCl2
Protocol: The MicroVue SC5b-9 EIA kit was used to measure activation of the classical and alternative pathways of complement according to the vendor's instruction (Quidel Corp., San Diego, Calif.). Briefly, the serum, untreated or treated was mixed with PBS, Ab-sensitized sheep RBC (SRBC), or 20 units of CVF and added to plate wells pre-coated with anti-sC5b-9 monoclonal antibody. The plate was incubated at 37° C. for 60 minutes, followed by five washes with the provided wash buffer. The plate was then incubated with the provided SC5b-9 Plus Conjugate, which contained horseradish peroxidase-conjugated Ab specific for sC5b-9 at room temperature for 30 minutes. The plate was washed five times, incubated with the substrate for 15 minutes at room temperature to initiate the enzymatic reaction and subsequently quenched with the stop solution. OD450 Was measured using the spectrophotometer SpectraMAX 250. The concentration of fluid phase sC5b-9 present in the samples was determined from the standard curve generated with the provided sC5b-9 standards.

iC3b [2] = target: T1, iC3b (Homo sapiens, UniProt P01024); experiment: ELISA for iC3b deposition on immobilized PGG β-glucan; format: binding; conditions: for Effect of serum treatment on iC3b deposition on immobilized β-glucan: methylamine 0.67%, 10 mM EGTA, 10 mM EGTA+10 mM MgCl2
T1 construct: from tissue
Protocol: PGG β-glucan or dextran was immobilized on wells of a 96-well polystyrene plate (COSTAR, Coming, Inc., Lowell, Mass.) by drying the glucans at 50° C. followed by UV cross-linking. The glucan-coated plate was first blocked with 1% BSA before incubation with untreated serum or serum undergone various treatments as described in binding studies, diluted 1:2 with wash buffer (PBS/0.05% Tween-20) for 30 minutes at 37° C. After washing the serum from the plate, the bound iC3b was probed using the anti-iC3b monoclonal antibody followed by biotin-labeled goat anti-mouse IgG Ab. The amount of immobilized biotin-labeled antibody was determined using streptavidin peroxidase and TMB substrate solution (KPL, Gaithersburg, Md.). OD450 of each well was measured with the spectrophotometer SpectraMAX 250 (Molecular Devices, Sunnyvale, Calif.). Fold change was calculated as OD450 of wells containing immobilized β-glucan divided by OD450 of wells containing no β-glucan, both incubated in the presence of treated or untreated serum.

human monocytes [3] = experiment: Binding of PGG β-glucan after serum pre-treatment, monocytes; format: cell-based; conditions: 10 mM EGTA with or without 10 mM MgCl2; vs untreated serum
Protocol: as §1, §2

human monocytes [4] = experiment: Binding studies on the role of complement proteins in serum, monocytes; format: cell-based; conditions: for Effect of the agent added to serum or media on binding of PGG β-glucan: compstatin/control peptide 20 or 100 μM, methylamine 0.67%, 166-32 20 μg/mL, HSA 10%
Protocol: (§3) Heat-inactivated (HI) serum was prepared by incubating serum in a 56° C. water bath for 30 minutes. […] Treatment of serum with methylamine (MA) was done by incubating serum with 0.67% of methylamine for 2.5 hours at 37° C., followed by three washes with DPBS using Amicon centrifugal filter unit with a 3K MW cut-off (Millipore, Billerica, Mass.). DPBS-treated serum was prepared in the same manner and used as control serum for MA-treated serum. For blocking of factor D in the serum, 166-32 at concentration 20 μg/mL was incubated with serum on ice for 30 minutes, and then used for binding studies. For binding experiments in the presence of EGTA or MgEGTA, serum was incubated with 10 mM EGTA with or without 10 mM MgCl2 for 10 minutes at room temperature. The untreated and EGTA/MgEGTA-treated serum was then used to pre-treat PGG and perform binding studies as described earlier.

human neutrophils [5] = experiment: Binding studies on the role of complement proteins in serum, neutrophils; format: cell-based; conditions: for Effect of the agent added to serum or media on binding of PGG β-glucan: compstatin/control peptide 20 or 100 μM, methylamine 0.67%, 166-32 20 μg/mL, HSA 10%
Protocol: as §3

iC3b [6] = target: T1, iC3b; experiment: Immunoprecipitation of PGG β-glucan with BfD IV and detection of pulled-down iC3b; format: binding; conditions: glucan incubated with regular serum
Protocol: PGG β-glucan or dextran at concentration 60-80 mg/mL was incubated with regular or HI serum at 1:10 volume ratio for 30 minutes in a 37° C. water bath. BfD IV Ab was added to the serum/β-glucan mixture and incubated at room temperature for additional 30 minutes. Magnetic beads conjugated with rat anti-mouse IgM (DYNABEADS, Invitrogen, Camarillo, Calif.) were washed three times with DPBS and incubated with serum-PGG β-glucan-BfD IV mixture for another 30 minutes at room temperature. The beads were separated magnetically and iC3b pulled-down along with immunoprecipitated PGG was probed using FITC-conjugated complement C3 Ab by flow cytometer.

human neutrophils [7] = experiment: Binding of DTAF-labeled PGG β-glucan to human neutrophils, with excess unlabeled competitor; format: cell-based; conditions: 10 mg/mL unlabeled competitor; 25 μg/mL DTAF-labeled β-glucan
Protocol: In early optimization experiments, neutrophils, monocytes, and T cells were identified by staining with fluorescently labeled anti-CD 15, anti-CD 14, or anti-CD3 Abs, respectively. Events were collected on a LSRII flow cytometer (BD Biosciences, San Jose, Calif.) and analysis was performed using FLOWJO (Tree Star, Ashland, Oreg.). For assessing binding of DTAF-labeled PGG β-glucan to human neutrophils, 25 βg/mL, 100 μg/mL, or 400 μg/mL of labeled β-glucan was added to neutrophils resuspended in RPMI/10% serum, incubated in a 37° C., 5% CO2 humidified incubator for one hour, washed twice with cold FACS buffer, and fixed with 1% paraformaldehyde. Surface binding of DTAF-conjugated β-glucan was subsequently assessed by flow cytometric analysis.

[8] = 100 μM compstatin-treated serum vs control peptide, C3 blocking, three donors

T1 sequence (P01024 749-1303 limits assumed): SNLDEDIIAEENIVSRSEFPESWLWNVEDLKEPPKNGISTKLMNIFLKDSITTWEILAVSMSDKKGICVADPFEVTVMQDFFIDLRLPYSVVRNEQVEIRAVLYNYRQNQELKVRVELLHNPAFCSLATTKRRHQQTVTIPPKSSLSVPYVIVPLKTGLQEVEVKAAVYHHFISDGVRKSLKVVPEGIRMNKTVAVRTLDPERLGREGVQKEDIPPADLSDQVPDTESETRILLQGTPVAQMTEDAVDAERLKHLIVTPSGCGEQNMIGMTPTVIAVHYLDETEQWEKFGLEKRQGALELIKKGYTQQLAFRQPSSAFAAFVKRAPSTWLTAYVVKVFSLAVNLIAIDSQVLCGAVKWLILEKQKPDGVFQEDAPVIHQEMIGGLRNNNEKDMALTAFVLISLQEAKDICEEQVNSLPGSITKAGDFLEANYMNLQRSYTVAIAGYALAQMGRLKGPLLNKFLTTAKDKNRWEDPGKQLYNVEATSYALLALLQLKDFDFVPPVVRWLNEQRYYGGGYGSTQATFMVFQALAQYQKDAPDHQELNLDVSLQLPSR
T1 sequence (P01024 23-667 partner limits assumed): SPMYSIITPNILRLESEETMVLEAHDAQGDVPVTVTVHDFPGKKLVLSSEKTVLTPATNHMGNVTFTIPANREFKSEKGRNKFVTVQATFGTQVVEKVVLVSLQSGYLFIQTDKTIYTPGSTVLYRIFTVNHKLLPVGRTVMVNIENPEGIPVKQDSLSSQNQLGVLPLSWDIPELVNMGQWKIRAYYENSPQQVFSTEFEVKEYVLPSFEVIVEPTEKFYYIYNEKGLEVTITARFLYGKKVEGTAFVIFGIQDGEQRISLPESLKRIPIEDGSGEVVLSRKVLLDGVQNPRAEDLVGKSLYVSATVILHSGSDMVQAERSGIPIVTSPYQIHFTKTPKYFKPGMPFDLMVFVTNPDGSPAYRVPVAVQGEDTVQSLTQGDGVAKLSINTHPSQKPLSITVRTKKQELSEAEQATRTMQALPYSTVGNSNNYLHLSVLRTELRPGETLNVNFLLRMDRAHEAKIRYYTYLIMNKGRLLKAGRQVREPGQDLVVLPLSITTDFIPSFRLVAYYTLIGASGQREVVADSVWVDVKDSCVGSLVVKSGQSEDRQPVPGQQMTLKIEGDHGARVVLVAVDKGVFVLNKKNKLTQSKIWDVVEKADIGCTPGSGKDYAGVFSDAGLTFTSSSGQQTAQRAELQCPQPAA
T1 sequence (P01024 1321-1663 partner limits assumed): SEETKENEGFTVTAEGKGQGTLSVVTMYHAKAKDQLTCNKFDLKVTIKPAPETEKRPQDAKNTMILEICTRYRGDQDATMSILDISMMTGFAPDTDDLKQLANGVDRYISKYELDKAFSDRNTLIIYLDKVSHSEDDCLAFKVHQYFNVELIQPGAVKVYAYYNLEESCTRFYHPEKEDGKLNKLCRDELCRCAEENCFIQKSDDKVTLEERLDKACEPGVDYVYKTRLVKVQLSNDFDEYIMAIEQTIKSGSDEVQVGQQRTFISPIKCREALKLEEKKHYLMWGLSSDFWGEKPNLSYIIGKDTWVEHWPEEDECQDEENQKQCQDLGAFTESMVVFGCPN

Molecule: O=C(O)CN(CCOCCOCCN(CC(=O)O)CC(=O)O)CC(=O)O [EGTA]
- Rescue of binding to cells in HI serum by PGG β-glucan pre-opsonized in treated serum (human neutrophils [1]): rescue of binding was diminished
- Effect on CVF-activated alternative pathway (sC5b-9 formation) (sC5b-9 complex): completely blocked both the classical and alternative pathways to background levels
- Effect on SRBC-activated classical pathway (sC5b-9 formation) (sC5b-9 complex): completely blocked both the classical and alternative pathways to background levels
- Effect of serum treatment on iC3b deposition on immobilized β-glucan (iC3b [2]): completely inhibited
- Rescue of binding to cells in HI serum by PGG β-glucan pre-opsonized in treated serum (human monocytes [3]): rescue of binding was diminished

Molecule: CN [methylamine]
- Effect of the agent added to serum or media on binding of PGG β-glucan (human monocytes [4]): abrogated the ability of PGG β-glucan to bind to cells
- Effect of serum treatment on iC3b deposition on immobilized β-glucan (iC3b [2]): complete inhibition of iC3b deposition
- Effect of the agent added to serum or media on binding of PGG β-glucan (human neutrophils [5]): abrogated the ability of PGG β-glucan to bind to cells

Molecule: dextran [reference compound]
- iC3b pulled down with BfD IV immunoprecipitate (iC3b [6]): absence of iC3b
- Fold increase of iC3b detected on immobilized glucan compared to background (iC3b [2]; 300 μg/mL immobilized, regular serum 30 minutes at 37° C.): significantly less iC3b detected
- Blocking of DTAF-labeled β-glucan staining by excess unlabeled glucan (human neutrophils [7]): did not block binding

Continued, in another order:

- Average percentage of inhibition of β-glucan binding (human monocytes [4]; [8]): 80%
- Range of percentage of inhibition of β-glucan binding (human monocytes [4]; [8]): 62-92%
Molecule: CC[C@H](C)[C@H](N)C(=O)N[C@H]1CSSC[C@@H](C(=O)N[C@H](C(N)=O)[C@@H](C)O)NC(=O)[C@H](CCCN=C(N)N)NC(=O)[C@H](Cc2cnc[nH]2)NC(=O)[C@H](Cc2cnc[nH]2)NC(=O)CNC(=O)[C@H](Cc2c[nH]c3ccccc23)NC(=O)[C@H](CC(=O)O)NC(=O)[C@H](CCC(N)=O)NC(=O)[C@H](C(C)C)NC(=O)[C@H](C(C)C)NC1=O [compstatin]
- Effect of the agent added to serum or media on binding of PGG β-glucan (human monocytes [4]): inhibited binding of β-glucan in a concentration-dependent manner
- Average percentage of inhibition of β-glucan binding (human neutrophils [5]; [8]): 95%
- Range of percentage of inhibition of β-glucan binding (human neutrophils [5]; [8]): 90-98%
- Effect of the agent added to serum or media on binding of PGG β-glucan (human neutrophils [5]): inhibited binding of β-glucan in a concentration-dependent manner

- Effect of the agent added to serum or media on binding of PGG β-glucan (human monocytes [4]): no effect on binding
Molecule: control peptide: control peptide IAVVQDWGHHRAT (SEQ ID NO:2) (control polypeptide)
- Effect of the agent added to serum or media on binding of PGG β-glucan (human neutrophils [5]): no effect on binding
